From publication PMC11532403 (Signal Transduction and Targeted Therapy, 2024)
Where two headings read alike, the source gives them in different places.

Assays:
[1] = test system: MET; parameters: method as in earlier work; conditions: read-out: MET IC50 ± SD; cited from earlier work
[2] = test system: RET-altered / thyroid / lung tumors; conditions: cited from earlier work
[3] = test system: VEGFR-2; parameters: method as in earlier work; conditions: read-out: VEGFR-2 IC50 ± SD; cited from earlier work
[4] = test system: patients; conditions: cited from earlier work
[5] = biological target: hERG potassium channel (Homo sapiens, UniProt Q12809); parameters: method as in literature; conditions: in vitro GLP hERG assay, ref literature; cited from earlier work
[6] = test system: HEK293T-KIF5B-RET^V804M xenograft; experiment: Tumor xenograft model; format: in vivo, BALB/c nude mice; conditions: 20 mg/kg twice daily, 14 days
Description: All procedures relating to animal handling, care, and treatment were performed according to the Beijing Laboratory Animal Management Regulations. 6-week-old male BALB/c nude mice were inoculated subcutaneously into the flank with Baf3-CCDC6-RET^WT (5*10^6 cells/ 0.1 mL/ each), Baf3-CCDC6-RET^M918T (5*10^6 cells/0.1 mL/each), Baf3-CCDC6-RET^V804M (5*10^6 cells/ 0.1 mL/ each), or HEK293T-KIF5B-RET^V804M (5*10^6 cells/ 0.1 mL/ each). Mice were randomized by tumor size into groups of 10 to 12 when tumor volume reached approximately 100-150 mm^3. […] Tumor size and body weight were measured two times each week, and tumor volume was calculated with the following formula: [length × (width)^2]/ 2. Statistical significance was calculated by using two-way ANOVA test to assess the difference in tumor volumes between the control (vehicle-treated) and treatment groups.

[7] = test system: RET; conditions: cited from earlier work

Chain of hERG potassium channel (Q12809 whole entry): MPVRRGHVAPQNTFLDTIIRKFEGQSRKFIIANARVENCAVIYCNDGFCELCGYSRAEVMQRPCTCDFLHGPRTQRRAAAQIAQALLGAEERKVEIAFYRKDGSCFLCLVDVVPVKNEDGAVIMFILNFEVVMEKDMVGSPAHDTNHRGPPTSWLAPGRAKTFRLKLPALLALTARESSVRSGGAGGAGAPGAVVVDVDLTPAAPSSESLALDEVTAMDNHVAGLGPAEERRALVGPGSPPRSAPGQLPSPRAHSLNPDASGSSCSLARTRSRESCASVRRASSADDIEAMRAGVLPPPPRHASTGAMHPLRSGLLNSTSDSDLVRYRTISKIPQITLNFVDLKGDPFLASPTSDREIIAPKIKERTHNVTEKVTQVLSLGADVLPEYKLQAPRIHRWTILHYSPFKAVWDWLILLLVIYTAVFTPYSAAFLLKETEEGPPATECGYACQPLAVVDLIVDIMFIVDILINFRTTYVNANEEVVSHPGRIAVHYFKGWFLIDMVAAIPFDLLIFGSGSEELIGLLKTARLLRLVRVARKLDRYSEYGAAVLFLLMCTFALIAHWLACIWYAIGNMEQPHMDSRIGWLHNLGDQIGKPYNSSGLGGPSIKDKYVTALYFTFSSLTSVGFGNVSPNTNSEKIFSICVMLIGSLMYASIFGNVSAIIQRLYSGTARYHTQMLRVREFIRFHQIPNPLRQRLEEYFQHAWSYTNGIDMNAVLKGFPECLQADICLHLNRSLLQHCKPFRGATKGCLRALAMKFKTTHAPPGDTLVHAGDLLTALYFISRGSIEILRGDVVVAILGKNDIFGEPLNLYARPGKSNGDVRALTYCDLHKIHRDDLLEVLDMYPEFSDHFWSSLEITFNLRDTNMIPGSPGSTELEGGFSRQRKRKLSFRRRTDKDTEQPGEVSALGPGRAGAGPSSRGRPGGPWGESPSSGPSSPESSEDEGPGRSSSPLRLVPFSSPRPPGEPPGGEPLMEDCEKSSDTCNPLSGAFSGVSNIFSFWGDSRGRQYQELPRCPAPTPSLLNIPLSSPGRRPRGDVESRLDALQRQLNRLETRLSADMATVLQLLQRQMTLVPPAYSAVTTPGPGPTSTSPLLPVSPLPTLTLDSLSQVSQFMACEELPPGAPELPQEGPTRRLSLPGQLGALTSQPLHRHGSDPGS

Compound: COc1cc2nccc(Oc3ccc(NC(=O)C4(C(=O)Nc5ccc(F)cc5)CC4)cc3)c2cc1OC [cabozantinib]
- IC50 [1]: 1.3 ± 1.2 nM
- ORR ([2]; NCT00704730, MTC ref 89): 28%
- mPFS ([2]; NCT00704730, MTC, 140 mg/d ref 89): 11.2 months
- mOS ([2]; RET M918T-positive subgroup ref 89): 44.3 months
- IC50 [3]: 0.035 ± 0.01 nM

Compound: COc1cc2nccc(Oc3ccc(NC(=O)NC4CC4)c(Cl)c3)c2cc1C(N)=O [lenvatinib]
- Patients with grade 3 or higher AEs ([4]; NCT01877083 ref 93): 92%
- ORR ([2]; NCT01877083, RET fusion NSCLC, 24 mg/d ref 93): 16%
- DCR ([2]; NCT01877083 ref 93): 76%
- mPFS ([2]; NCT01877083 ref 93): 7.3 months

Compound: CO[C@]1(C(=O)N[C@@H](C)c2ccc(-n3cc(F)cn3)nc2)CC[C@H](c2nc(C)cc(Nc3cc(C)[nH]n3)n2)CC1 [pralsetinib]
- Grade ≥ 3 TRAEs ([4]; ARROW ref 22,29): 54%
- Grade ≥ 3 anemia ([4]; ARROW ref 22,29): 12%
- Grade ≥ 3 hypertension ([4]; ARROW ref 22,29): 12%
- Grade ≥ 3 leukopenia ([4]; ARROW ref 22,29): 8%
- Grade ≥ 3 lymphopenia ([4]; ARROW ref 22,29): 9%
- Grade ≥ 3 neutropenia ([4]; ARROW ref 22,29): 20%
- TRSAEs ([4]; ARROW ref 22,29): 24%
- Treatment-induced deaths [4]: 0.4%
- Treatment-induced discontinuations [4]: 7%
- Treatment-induced dose reductions [4]: 38%
- Complete response ([2]; ARROW, NSCLC ref 101): 14%
- Patients with tumor shrinkage ([2]; ARROW, NSCLC ref 101): 95%
- ORR ([2]; ARROW, RET fusion-positive NSCLC ref 101): 61%
- ORR ([2]; ARROW, RET fusion-positive NSCLC, previously treated ref 29): 59%
- ORR ([2]; ARROW, RET fusion-positive NSCLC, treatment-naïve ref 29): 72%
- ORR ([2]; ARROW, RET-mutant MTC previously treated with vandetanib ref 101): 60%
- ORR ([2]; ARROW, treatment-naïve MTC ref 101): 74%
- ORR ([2]; ARROW, treatment-naïve RET-mutant MTC ref 31): 71%

Compound: COc1ccc(CN2C3CC2CN(c2ccc(-c4cc(OCC(C)(C)O)cn5ncc(C#N)c45)cn2)C3)cn1 [selpercatinib]
- IC50 [5]: 1100 nM
- Grade ≥ 3 TRAEs ([4]; LIBRETTO-001 ref 28): 38.6%
- Grade ≥ 3 hypertension ([4]; LIBRETTO-001 ref 28): 13.2%
- Grade ≥ 3 increased ALT ([4]; LIBRETTO-001 ref 28): 9.0%
- Grade ≥ 3 increased AST ([4]; LIBRETTO-001 ref 28): 6.3%
- TRSAEs ([4]; LIBRETTO-001 ref 28): 11%
- Treatment-induced deaths [4]: 0.1%
- Treatment-induced discontinuations [4]: 3%
- Treatment-induced dose reductions [4]: 41%
- ORR ([2]; LIBRETTO-001, 19 RET fusion-positive thyroid cancer ref 96-97): 79%
- ORR ([2]; LIBRETTO-001, 39 NSCLC without systemic therapy ref 96-97): 84%
- ORR ([2]; LIBRETTO-001, 105 RET fusion-positive NSCLC ref 96-97): 64%
- ORR ([2]; LIBRETTO-001, NSCLC, previously treated ref 28): 61%
- ORR ([2]; LIBRETTO-001, RET-mutant thyroid cancer, 55 previously treated ref 96-97): 69%
- ORR ([2]; LIBRETTO-001, RET-mutant thyroid cancer, 88 not previously treated ref 96-97): 73%
- ORR ([2]; LIBRETTO-431, NSCLC, treatment-naïve ref 30): 84%
- ORR ([2]; LIBRETTO-531, RET-mutant MTC ref 32): 69.4%
- 1-year DoR rate ([2]; previously treated ref 28): 73.1%
- 1-year PFS rate ([2]; previously treated ref 28): 70.5%
- 1-year DoR rate ([2]; treatment-naïve ref 28): 66.1%
- 1-year PFS rate ([2]; treatment-naïve ref 28): 70.6%
- TGI [6]: 45.2%

Compound: CNC(=O)c1cc(Oc2ccc(NC(=O)Nc3ccc(Cl)c(C(F)(F)F)c3)cc2)ccn1 [sorafenib]
- PR rate ([2]; DECISION ref 80): 12.2%
